Data taken from ChEMBL document CHEMBL1275572, “KPC-2-producing Enterobacter cloacae and pseudomonas putida coinfection in a liver transplant recipient” (2009).
Values after ≈ are worked out from the molar mass of the structure shown.

Experiments:
Enterobacter cloacae [1] = test: Antimicrobial activity against Enterobacter cloacae expressing beta-lactamase KPC-2 and SHV-12 obtained from criticall ill liver transplant recipient by broth microdilution method; assay type: functional
Pseudomonas putida [2] = test: Antimicrobial activity against Pseudomonas putida expressing beta-lactamase KPC-2 and SHV-12 obtained from criticall ill liver transplant recipient by broth microdilution method; assay type: functional
Pseudomonas putida [3] = test: Antimicrobial activity against Pseudomonas putida expressing beta-lactamase KPC-2 and SHV-12 obtained from criticall ill liver transplant recipient by broth microdilution method in presence of beta-lactamase inhibitor Tazobactam; assay type: functional
Enterobacter cloacae [4] = test: Antimicrobial activity against Enterobacter cloacae expressing beta-lactamase KPC-2 and SHV-12 obtained from criticall ill liver transplant recipient by broth microdilution method in presence of beta-lactamase inhibitor Tazobactam; assay type: functional
Acinetobacter sp. = test: Antimicrobial activity against Acinetobacter spp.; assay type: functional, organism-based

Description for Pseudomonas aeruginosa: Antimicrobial activity against Pseudomonas aeruginosa

Molecule | MIC (Enterobacter cloacae [1]) | MIC (Pseudomonas putida [2]) | other results
C[C@@H](O)[C@H]1C(=O)N2C(C(=O)O)=C(SCCNC=N)C[C@H]12 [IMIPENEM ANHYDROUS] | > 4 µg/mL | > 4 µg/mL | –
CO/N=C(\C(=O)N[C@@H]1C(=O)N2C(C(=O)[O-])=C(C[N+]3(C)CCCC3)CS[C@H]12)c1csc(N)n1 | – | > 32 µg/mL | –
C[C@@H](O)[C@H]1C(=O)N2C(C(=O)O)=C(S[C@@H]3CN[C@H](C(=O)N(C)C)C3)[C@H](C)[C@H]12 [MEROPENEM] | > 4 µg/mL | > 4 µg/mL | –
CC(C)(O/N=C(\C(=O)N[C@@H]1C(=O)N2C(C(=O)[O-])=C(C[n+]3ccccc3)CS[C@H]12)c1csc(N)n1)C(=O)O [CEFTAZIDIME] | > 32 µg/mL | > 32 µg/mL | –
CO[C@@]1(NC(=O)Cc2cccs2)C(=O)N2C(C(=O)O)=C(COC(N)=O)CS[C@@H]21 [CEFOXITIN] | > 32 µg/mL | > 32 µg/mL | –
CCN1CCN(C(=O)N[C@@H](C(=O)N[C@@H]2C(=O)N3[C@@H]2SC(C)(C)[C@@H]3C(=O)O)c2ccccc2)C(=O)C1=O [PIPERACILLIN] | – | – | MIC (Pseudomonas putida [3]): > 128 µg/mL; MIC (Enterobacter cloacae [4]): > 128 µg/mL
COLISTIN | > 16 µg/mL | 2 µg/mL | MIC (Pseudomonas aeruginosa): > 16 µg/mL; MIC (Acinetobacter sp.): > 16 µg/mL
NCC[C@H](O)C(=O)N[C@@H]1C[C@H](N)[C@@H](O[C@H]2O[C@H](CN)[C@@H](O)[C@H](O)[C@H]2O)[C@H](O)[C@H]1O[C@H]1O[C@H](CO)[C@@H](O)[C@H](N)[C@H]1O [AMIKACIN] | 16 µg/mL (≈ 27.3 µM) | 1 µg/mL (≈ 1.71 µM) | –
CO/N=C(\C(=O)N[C@@H]1C(=O)N2C(C(=O)O)=C(CSc3nc(=O)c(O)nn3C)CS[C@H]12)c1csc(N)n1 [CEFTRIAXONE] | > 32 µg/mL | > 32 µg/mL | –
NC[C@H]1O[C@H](O[C@H]2[C@H](O)[C@@H](O[C@H]3O[C@H](CO)[C@@H](O)[C@H](N)[C@H]3O)[C@H](N)C[C@@H]2N)[C@H](N)C[C@@H]1O [TOBRAMYCIN] | > 8 µg/mL | > 8 µg/mL | –
C[C@@H](O)[C@H]1C(=O)N2C(C(=O)O)=C(S[C@@H]3CN[C@H](C(=O)Nc4cccc(C(=O)O)c4)C3)[C@H](C)[C@H]12 | > 8 µg/mL | > 8 µg/mL | –
GENTAMICIN | > 8 µg/mL | > 8 µg/mL | –
C[C@H]1COc2c(N3CCN(C)CC3)c(F)cc3c(=O)c(C(=O)O)cn1c23.C[C@H]1COc2c(N3CCN(C)CC3)c(F)cc3c(=O)c(C(=O)O)cn1c23.O [LEVOFLOXACIN] | 2 µg/mL | > 16 µg/mL | –
